# Source: patent publication US11179412B2, “Methods of treating conditions involving elevated inflammatory response” (University of Pittsburgh—Of the Commonwealth System of …, priority 2017, dated 2021)
# “Also recorded” adds a separate entry of the source.
# How the values were obtained:
# [1] = test system: STING activation (IFNβ release) in pPMs; assay: IFNβ release ELISA, primary peritoneal macrophages (pPMs); format: cell-based, mouse; settings: 16 hours
# Procedure: Mouse pPMs were isolated from C57BL/6J mice as previously described (69). In brief, eight-week-old female or male C57BL/6J mice were injected with 3.0% thioglycollate medium (2 mL/mouse) into the peritoneum. Three days after injection, mice were sacrificed and injected with 3 mL of 0.05% EDTA-PBS into the peritoneum to harvest peritoneal macrophages. Collected cells were centrifuged at 1000 rpm for 5 min at 4° C., and the cell pellet was washed with PBS and centrifuged again. The cell pellet was then suspended in Dulbecco's Modified Eagle Medium supplemented with 10% FBS and 1× Penicillin-Streptomycin and cultured in a culture dish.
# (§1) Macrophages or monocytes were treated with 3′3′-cGAMP (10 μg/ml, Invitrogen) for 16 hours in the absence or presence of one compound (10 μM) from the Target-selective Inhibitory Library (#L3500, Selleck Chemicals). Commercially available enzyme-linked immunosorbent assay (ELISA) kits were used to measure the concentrations of mouse IFNβ (Thermo Fisher Scientific) or human IFNβ (Thermo Fisher Scientific) in culture medium according to the manufacturer's instructions.
# [2] = test system: STING activation (IFNβ release) in RAW264.7 cells; assay: IFNβ release ELISA, RAW264.7 cells; format: cell-based, mouse; settings: STING ligands 10 μg/ml, inhibitor 10 μM, 16 hours
# Procedure: as §1
# IFNβ mRNA in pPMs = assay: IFNβ mRNA Q-PCR, pPMs; format: cell-based, mouse; settings: STING ligands 10 μg/ml, inhibitor 10 μM, 16 hours
# Procedure: Total RNA was extracted using QIAGEN RNeasy Plus Kit according to the manufacturer's instructions. First-strand cDNA was synthesized from 1 μg of RNA using the iScript cDNA Synthesis kit (#1708890, Bio-Rad). Briefly, 20 μl reactions were prepared by combining 4 μl iScript Select reaction mix, 2 μl gene-specific enhancer solution, 1 μl reverse transcriptase, 1 μl gene-specific assay pool (20×, 2 μM), and 12 μl RNA diluted in RNase-free water. Quantitative real-time PCR was carried out using synthesized cDNA, primers, and SsoFast EvaGreen Supermix (#172-5204, Bio-Rad). The expression of target genes was calculated using the ddCt method relative to the expression of a house-keeping gene, β-actin. Data shown are the relative quantity (RQ), with RQ of the control cells set to one.
# [3] = test system: STING signaling (TBK1, IRF3, p65, ALK, EGFR, AKT phosphorylation) in THP1 cells; assay: Western blot of STING pathway protein phosphorylation, THP1; format: cell-based, human; settings: 10 μM
# Procedure: For immunoblotting, cells were lysed in Cell Lysis Buffer (#9803, Cell Signaling Technology) with protease inhibitor cocktail (Promega), phosphatase inhibitor cocktail (Sigma), and 1 mM Na3VO4 (70). Cleared lysates were resolved by SDS-PAGE (#3450124, Bio-Rad) and then transferred onto PVDF membranes (#1704273, Bio-Rad). The membranes were blocked with Tris-buffered saline Tween 20 (TBST) containing 5% skim milk for 1 h at room temperature and then incubated with the indicated primary antibodies (1:1000-1:5000) overnight at 4° C. After being washed with TBST, the membranes were incubated with an HRP-linked anti-mouse IgG secondary antibody (#7076, Cell Signaling Technology) or HRP-linked anti-rabbit IgG secondary antibody (#7074, Cell Signaling Technology) for 1 h at room temperature. The membranes were washed three times in TBST and then visualized and analyzed with a ChemiDoc Touch Imaging System (#1708370, Bio-Rad). The intensities of bands were analyzed with Image Lab software.
# [4] = target: T1, interaction between ALK and EGFR (Mus musculus, UniProt P97793+Q01279); assay: IP analysis of the interaction between ALK and EGFR, iBMDMs; format: cell-based; settings: 3′3′-cGAMP or c-di-AMP 10 μg/ml, 16 hours, 10 μM
# T1 construct: endogenous in cells; host or cells: iBMDMs
# Procedure: Concentrations of proteins in the supernatant were determined by bicinchoninic acid assay. […] Following incubation, agarose/sepharose beads were washed extensively with PBS and proteins were eluted by boiling in 2× sodium dodecyl sulfate (SDS) sample buffer before SDS-PAGE electrophoresis.
# [5] = test system: CLP-induced polymicrobial sepsis in C57BL/6J mice; assay: CLP model of polymicrobial sepsis; format: in vivo, mouse
# Procedure: sepsis was induced in male or female C57BL/6J mice (eight- to 10-weeks old, 22 to 26 g) using a surgical procedure as previously described (68). Briefly, anesthesia was induced with ketamine (80-100 mg/kg/i.p.) and xylazine (10-12.5 mg/kg/i.p.). A small midline abdominal incision was made and the cecum was exteriorized and ligated with 4-0 silk immediately distal to the ileocecal valve without causing intestinal obstruction. The cecum was then punctured twice with a 17-27-gauge needle. The abdomen was closed in two layers and mice were injected subcutaneously with 1 ml Ringer's solution including analgesia (0.05 mg/kg buprenorphine). […]
# (§2) Biochemical measurements of tissue enzymes (CK, AMYL, BUN, and ALT) in serum were performed using the IDEXX Catalyst Dx Chemistry Analyzer according to the manufacturer's protocol.
# (§3) Tissues were embedded in optimum cutting temperature cryomedium (Sakura Finetek, Zoeterwoude, the Netherlands) and cut into 4 μm sections. The deparaffinized sections were then stained using the standard H&E method. The stained slides were observed using an EVOS FL Auto Cell Imaging System (Invitrogen), five fields per section and three sections per sample.
# [6] = test system: LPS-induced endotoxemia in C57BL/6J mice; assay: Endotoxemia model (LPS); format: in vivo, mouse
# Procedure: LPS (Escherichia coli […], 10 mg/kg, #L4391, Sigma) was dissolved in PBS. Male or female C57BL/6J mice (eight- to 10-weeks old, 22 to 26 g weight) received a single oral dose of LDK378 (20 mg/kg) or vehicle, then an infusion of LPS (10 mg/kg, intraperitoneally) 60 minutes later. Mice were re-treated with LDK378 or vehicle six, 12, and 24 hours after LPS infusion.
# as §2, §3
# [7] = LPS 10 mg/kg, LDK378 20 mg/kg, 24 hours
# T1 sequence (P97793 19-1621): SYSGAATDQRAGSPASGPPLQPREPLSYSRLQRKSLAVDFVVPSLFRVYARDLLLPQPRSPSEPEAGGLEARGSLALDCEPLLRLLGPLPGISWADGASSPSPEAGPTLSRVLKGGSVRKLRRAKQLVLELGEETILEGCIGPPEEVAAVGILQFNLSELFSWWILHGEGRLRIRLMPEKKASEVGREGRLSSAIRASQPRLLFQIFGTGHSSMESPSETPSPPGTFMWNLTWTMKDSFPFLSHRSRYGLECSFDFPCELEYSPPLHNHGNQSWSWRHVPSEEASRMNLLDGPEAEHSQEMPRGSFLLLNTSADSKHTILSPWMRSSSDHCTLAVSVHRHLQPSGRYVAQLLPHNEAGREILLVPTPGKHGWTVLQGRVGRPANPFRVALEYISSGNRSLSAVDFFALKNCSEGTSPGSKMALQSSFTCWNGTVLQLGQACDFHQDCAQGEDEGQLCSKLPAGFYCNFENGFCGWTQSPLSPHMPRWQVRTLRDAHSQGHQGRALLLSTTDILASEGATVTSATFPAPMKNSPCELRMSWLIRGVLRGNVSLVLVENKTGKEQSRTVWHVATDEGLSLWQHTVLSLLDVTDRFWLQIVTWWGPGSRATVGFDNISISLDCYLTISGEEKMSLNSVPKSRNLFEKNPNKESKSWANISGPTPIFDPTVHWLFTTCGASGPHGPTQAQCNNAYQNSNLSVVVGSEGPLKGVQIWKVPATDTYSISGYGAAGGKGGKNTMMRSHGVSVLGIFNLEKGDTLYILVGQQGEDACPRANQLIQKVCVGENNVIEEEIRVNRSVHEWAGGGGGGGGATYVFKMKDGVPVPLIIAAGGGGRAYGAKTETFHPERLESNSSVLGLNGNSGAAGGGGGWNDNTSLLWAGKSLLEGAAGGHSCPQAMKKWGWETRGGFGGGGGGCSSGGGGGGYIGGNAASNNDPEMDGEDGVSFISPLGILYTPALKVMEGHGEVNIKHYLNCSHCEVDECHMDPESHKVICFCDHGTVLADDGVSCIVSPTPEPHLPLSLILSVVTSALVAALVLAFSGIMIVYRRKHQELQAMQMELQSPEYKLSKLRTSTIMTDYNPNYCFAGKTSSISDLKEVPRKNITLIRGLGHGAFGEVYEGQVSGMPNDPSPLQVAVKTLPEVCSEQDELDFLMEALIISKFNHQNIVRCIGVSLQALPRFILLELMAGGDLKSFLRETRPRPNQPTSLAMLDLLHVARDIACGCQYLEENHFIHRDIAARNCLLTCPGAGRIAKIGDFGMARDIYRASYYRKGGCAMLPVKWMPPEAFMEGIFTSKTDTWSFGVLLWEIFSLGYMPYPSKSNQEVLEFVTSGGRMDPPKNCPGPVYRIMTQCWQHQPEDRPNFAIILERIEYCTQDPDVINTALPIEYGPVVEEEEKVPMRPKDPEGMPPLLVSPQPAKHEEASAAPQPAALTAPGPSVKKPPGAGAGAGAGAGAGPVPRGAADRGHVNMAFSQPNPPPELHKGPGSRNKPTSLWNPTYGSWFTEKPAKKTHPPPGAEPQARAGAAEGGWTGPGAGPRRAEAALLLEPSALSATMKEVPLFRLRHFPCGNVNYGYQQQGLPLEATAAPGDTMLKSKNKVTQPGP
# T1 sequence (Q01279 25-1210): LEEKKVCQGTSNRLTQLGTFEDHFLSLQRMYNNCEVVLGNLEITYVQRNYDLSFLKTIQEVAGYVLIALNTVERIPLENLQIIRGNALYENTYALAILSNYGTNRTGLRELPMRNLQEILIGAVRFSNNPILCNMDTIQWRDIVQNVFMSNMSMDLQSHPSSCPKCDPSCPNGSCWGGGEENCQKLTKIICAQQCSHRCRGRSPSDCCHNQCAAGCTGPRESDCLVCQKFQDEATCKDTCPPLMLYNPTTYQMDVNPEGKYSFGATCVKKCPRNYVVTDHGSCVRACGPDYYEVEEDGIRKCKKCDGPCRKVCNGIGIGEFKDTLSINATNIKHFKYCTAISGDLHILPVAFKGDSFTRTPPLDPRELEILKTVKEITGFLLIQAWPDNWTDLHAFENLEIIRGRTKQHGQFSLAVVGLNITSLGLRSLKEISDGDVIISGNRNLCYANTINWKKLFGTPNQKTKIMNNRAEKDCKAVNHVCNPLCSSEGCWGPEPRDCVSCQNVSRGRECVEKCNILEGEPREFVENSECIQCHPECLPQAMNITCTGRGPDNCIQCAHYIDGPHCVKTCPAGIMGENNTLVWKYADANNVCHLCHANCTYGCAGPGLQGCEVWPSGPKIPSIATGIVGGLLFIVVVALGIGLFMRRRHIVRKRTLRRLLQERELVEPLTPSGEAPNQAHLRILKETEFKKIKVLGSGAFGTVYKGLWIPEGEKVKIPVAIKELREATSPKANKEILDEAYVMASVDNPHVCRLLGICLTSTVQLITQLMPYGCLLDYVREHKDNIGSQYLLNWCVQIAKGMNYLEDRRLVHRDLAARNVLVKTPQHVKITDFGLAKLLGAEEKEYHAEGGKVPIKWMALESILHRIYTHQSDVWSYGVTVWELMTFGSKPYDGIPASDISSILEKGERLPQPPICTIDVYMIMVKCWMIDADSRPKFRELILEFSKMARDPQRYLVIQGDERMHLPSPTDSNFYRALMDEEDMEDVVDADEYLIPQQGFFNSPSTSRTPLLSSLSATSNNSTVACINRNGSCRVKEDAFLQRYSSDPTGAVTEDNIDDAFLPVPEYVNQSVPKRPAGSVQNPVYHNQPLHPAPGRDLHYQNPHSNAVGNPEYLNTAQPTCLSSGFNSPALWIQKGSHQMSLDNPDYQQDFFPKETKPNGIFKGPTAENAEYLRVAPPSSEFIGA
structure (smiles),measurement,setting,value
"Cc1cc(Nc2ncc(Cl)c(Nc3ccccc3S(=O)(=O)C(C)C)n2)c(OC(C)C)cc1C1CCNCC1 [LDK378, 5-chloro-N^2-(2-isopropoxy-5-methyl-4-(piperidin-4-yl)phenyl)-N^4-[2-(propane-2-sulfonyl)-phenyl]-pyrimidine-2,4-diamine]",3′3′-cGAMP-induced IFNβ release,"[1]; mouse pPMs, 3′3′-cGAMP 10 μg/ml, compound 10 μM",confirmed their inhibitory properties
same,IFNβ release induced by STING ligands,"[1]; pPMs, STING ligands 10 μg/ml, inhibitor 10 μM",inhibited
same,IFNβ release induced by STING ligands,[2],inhibited
same,STING ligand-induced IFNβ mRNA expression,IFNβ mRNA in pPMs,attenuation
same,3′3′-cGAMP-induced p-TBK1,"[3]; 3′3′-cGAMP 10 μg/ml, three to 16 hours",time-dependently reduced
same,"STING ligand-induced phosphorylation of TBK1, IRF3, and p65","[3]; 3′3′-cGAMP or c-di-AMP 10 μg/ml, 16 hours",diminished
same,"3′3′-cGAMP-, c-di-AMP-, and DMXAA-induced p-IRF3 and p-p65",[3]; ligand 10 μg/ml,inhibited
same,c-di-AMP- or DMXAA-induced p-TBK1,"[3]; ligand 10 μg/ml, 16 hours",inhibited
same,"3′3′-cGAMP- or c-di-AMP-induced phosphorylation of ALK, EGFR, and AKT","[3]; ligand 10 μg/ml, 16 hours",attenuated
same,interaction between ALK and EGFR,[4],reduced
same,CLP-induced lethality (animal death),"[5]; B6 mice, CLP 22-gauge needle, LDK378 20 mg/kg, intraperitoneally (i.p.), 2, 24, 48, and 72 hours after CLP, 20 mg/kg",conferred protection against lethality; also recorded: conferred significant protection; also recorded: prevented
same,protection of STING-deficient mice in high-grade sepsis,"[5]; CLP 17 G needle, STING-deficient mice",conferred further protection
same,"organ dysfunction by serum tissue enzymes (CK, AMYL, BUN, ALT)","[5]; CLP 22-gauge needle, LDK378 20 mg/kg, day 2-7",protective effects
same,"CLP-induced TNFα, IFNβ, MCP1, and IL-7 mRNA expression","[5]; CLP 22-gauge needle, LDK378 20 mg/kg, day 3",reduced
same,"CLP-induced tissue injury (H&E; lung, small intestine, other tissues)","[5]; CLP 22-gauge needle, LDK378 20 mg/kg, day 3, 20 mg/kg",reduced injury; also recorded: prevented
same,top five downregulated circulating immune chemical mediators compared with control group,"[5]; CLP 22-gauge needle, serum, day 3","IL-10, serpin E1, serpin F1, TIM-1, and CXCL2"
same,"animal survival in low-, middle-, and high-grade sepsis models","[5]; CLP with 27 G, 22 G, 17 G needles, B6 mice",prolonged animal survival
same,CLP-induced cytokine systemic release and accumulation in the serum,"[5]; serum antibody array, CLP 22-gauge needle, LDK378 20 mg/kg, day 3",reduced
same,endotoxemic lethality (LPS-induced animal death),"[6]; LPS 10 mg/kg i.p., LDK378 20 mg/kg",promoted similar protection; also recorded: conferred significant protection; also recorded: prevented
same,organ dysfunction (serum enzyme activity),"[6]; LPS 10 mg/kg, LDK378 20 mg/kg, 12-48 hours",promoted similar protection
same,endotoxemia-induced tissue injury (H&E),[6]; [7],promoted similar protection; also recorded: prevented
same,proinflammatory cytokine expression (mRNA),[6]; [7],promoted similar protection
same,proinflammatory cytokine release (serum antibody array),[6]; [7],promoted similar protection
same,top five downregulated circulating immune chemical mediators compared with control group,"[6]; LPS 10 mg/kg, serum, 24 hours","EGF, CD14, CXCL1, endoglin, and CCL22"
